Reference: ChEMBL document CHEMBL2449286, “Structure-activity data for a series of P-glycoprotein inhibitors (Supplementary Data to CHEMBL1142990)”

target: ATP-dependent translocase ABCB1 (Homo sapiens, UniProt P08183)
Sequence (P08183 whole entry): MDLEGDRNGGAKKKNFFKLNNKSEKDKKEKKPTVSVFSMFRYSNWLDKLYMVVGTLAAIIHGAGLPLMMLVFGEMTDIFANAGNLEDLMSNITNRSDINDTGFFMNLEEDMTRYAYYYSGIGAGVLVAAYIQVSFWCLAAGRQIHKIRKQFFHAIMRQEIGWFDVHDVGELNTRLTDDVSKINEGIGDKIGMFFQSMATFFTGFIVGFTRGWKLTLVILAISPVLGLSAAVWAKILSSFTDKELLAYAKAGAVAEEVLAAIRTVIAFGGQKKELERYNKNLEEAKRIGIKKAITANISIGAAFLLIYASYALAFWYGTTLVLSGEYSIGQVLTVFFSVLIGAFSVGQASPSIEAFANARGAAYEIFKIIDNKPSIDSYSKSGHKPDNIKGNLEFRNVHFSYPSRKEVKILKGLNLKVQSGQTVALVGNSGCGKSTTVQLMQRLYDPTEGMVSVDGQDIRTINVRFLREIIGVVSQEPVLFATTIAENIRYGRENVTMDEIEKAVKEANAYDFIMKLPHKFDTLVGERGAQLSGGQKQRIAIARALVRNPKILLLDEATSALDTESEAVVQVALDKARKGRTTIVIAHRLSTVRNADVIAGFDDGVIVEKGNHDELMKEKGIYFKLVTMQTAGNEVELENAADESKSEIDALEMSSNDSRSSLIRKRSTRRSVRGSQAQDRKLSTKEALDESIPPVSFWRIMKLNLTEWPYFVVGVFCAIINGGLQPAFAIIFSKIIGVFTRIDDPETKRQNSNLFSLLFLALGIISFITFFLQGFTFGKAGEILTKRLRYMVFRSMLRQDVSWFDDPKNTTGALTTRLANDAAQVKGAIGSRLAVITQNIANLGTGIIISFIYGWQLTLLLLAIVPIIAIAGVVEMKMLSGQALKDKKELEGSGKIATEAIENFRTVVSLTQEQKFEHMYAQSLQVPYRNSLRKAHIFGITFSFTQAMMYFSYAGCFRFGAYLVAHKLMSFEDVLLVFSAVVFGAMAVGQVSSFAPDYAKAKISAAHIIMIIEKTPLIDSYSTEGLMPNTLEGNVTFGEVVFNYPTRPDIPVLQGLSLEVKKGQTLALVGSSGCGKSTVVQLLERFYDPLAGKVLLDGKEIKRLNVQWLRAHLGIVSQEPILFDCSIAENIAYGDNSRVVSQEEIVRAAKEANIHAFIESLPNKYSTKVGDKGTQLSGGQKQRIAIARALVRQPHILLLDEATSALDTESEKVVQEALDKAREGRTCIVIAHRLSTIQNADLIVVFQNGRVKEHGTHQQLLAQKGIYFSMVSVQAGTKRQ

Structure (SMILES) | EC50
O=C(CCc1ccccc1)c1ccccc1OC[C@H](O)CN1CCC(Cc2ccccc2)CC1 | 0.257 µM
O[C@H](COc1ccccc1[C@@H](O)CCc1ccccc1)CN1CCCCC1 | 1.7 µM
O[C@@H](COc1ccccc1[C@@H](O)CCc1ccccc1)CN1CCCCC1 | 0.871 µM
O[C@H](COc1ccccc1[C@H](O)CCc1ccccc1)CN1CCCCC1 | 1.51 µM
O[C@@H](COc1ccccc1[C@H](O)CCc1ccccc1)CN1CCCCC1 | 0.851 µM
OC(CN1CCCCC1)C1Oc2ccccc2C1CCc1ccccc1 (stereo not given) | 0.646 µM
CC(C)[C@@H](CCl)N(C)[C@@H]1C2C=C(C#N)C=CC2OC(C)(C)[C@H]1O (stereo not given in full) | 2.24 µM
O=C(CCc1cccc2ccccc12)c1cccc(OCC(O)CN2CCN(c3ccc(F)cc3)CC2)c1 (stereo not given) | 0.158 µM
Cc1ccccc1N1CCN(CC(O)COc2cccc(C(=O)CCc3cccc4ccccc34)c2)CC1 (stereo not given) | 0.0708 µM
CNC1c2cc(C#N)ccc2OC(C)(C)C1O (stereo not given) | 776 µM
CC1(C)Oc2ccc(C#N)cc2C(NCc2ccccc2)C1O (stereo not given) | 75.9 µM
CN[C@@H]1c2cc(C#N)ccc2OC(C)(C)[C@H]1O | 1700 µM
CC1(C)Oc2ccc(C#N)cc2[C@@H](NCc2ccccc2)[C@@H]1O | 58.9 µM
CC(C)[C@@H](N[C@H]1c2ccccc2OC(C)(C)[C@@H]1O)C(=O)OC(C)(C)C | 1.35 µM
CC(C)[C@@H](N[C@@H]1c2cc(C#N)ccc2OC(C)(C)[C@H]1O)C(=O)OC(C)(C)C | 4.68 µM
CC(C)[C@@H](C(=O)OC(C)(C)C)N(C)[C@@H]1c2cc(C#N)ccc2OC(C)(C)[C@H]1O | 0.955 µM
CC(C)[C@@H](C(=O)OC(C)(C)C)N(C)[C@H]1c2cc(C#N)ccc2OC(C)(C)[C@@H]1O | 1.35 µM
CC(C)[C@H](C(=O)OC(C)(C)C)N(C)[C@@H]1c2cc(C#N)ccc2OC(C)(C)[C@H]1O | 1 µM
CC(NC1c2cc(C#N)ccc2OC(C)(C)C1O)C(=O)OC(C)(C)C (stereo not given) | 29.5 µM
C[C@H](N[C@H]1c2cc(C#N)ccc2OC(C)(C)[C@@H]1O)C(=O)OC(C)(C)C | 14.5 µM
C[C@@H](C(=O)OC(C)(C)C)N(C)[C@H]1c2cc(C#N)ccc2OC(C)(C)[C@@H]1O | 3.72 µM
C[C@@H](C(=O)OC(C)(C)C)N(C)[C@@H]1c2cc(C#N)ccc2OC(C)(C)[C@H]1O | 3.98 µM
CC(C)[C@@H]1N[C@@H]2c3cc(C#N)ccc3OC(C)(C)[C@H]2OC1=O | 15.5 µM
CC(C)[C@@H]1N[C@H]2c3cc(C#N)ccc3OC(C)(C)[C@@H]2OC1=O | 58.9 µM
CC(C)[C@H]1N[C@H]2c3cc(C#N)ccc3OC(C)(C)[C@@H]2OC1=O | 9.55 µM

Structure (SMILES) | EC50
C[C@@H]1N[C@H]2c3cc(C#N)ccc3OC(C)(C)[C@@H]2OC1=O | 77.6 µM
C[C@H]1C(=O)O[C@@H]2[C@H](c3cc(C#N)ccc3OC2(C)C)N1C | 28.8 µM
C[C@@H]1N[C@@H]2c3cc(C#N)ccc3OC(C)(C)[C@H]2OC1=O | 1230 µM
C[C@H]1C(=O)O[C@H]2[C@@H](c3cc(C#N)ccc3OC2(C)C)N1C | 47.9 µM
CC(C)[C@H]1C(=O)O[C@H]2[C@@H](c3cc(C#N)ccc3OC2(C)C)N1C | 47.9 µM
CC(C)[C@@H]1C(=O)O[C@H]2[C@@H](c3cc(C#N)ccc3OC2(C)C)N1C | 79.4 µM
CC(C)[C@@H]1C(=O)O[C@@H]2[C@H](c3cc(C#N)ccc3OC2(C)C)N1C | 27.5 µM
CC(C)[C@H]1C(=O)O[C@@H]2[C@H](c3cc(C#N)ccc3OC2(C)C)N1C | 16.6 µM
CC(C)(C)OC(=O)C(Cc1ccccc1)N[C@H]1c2cc(C#N)ccc2OC(C)(C)[C@@H]1O (stereo not given in full) | 0.776 µM
CC(C)(C)OC(=O)C(Cc1ccccc1)N[C@@H]1c2cc(C#N)ccc2OC(C)(C)[C@H]1O (stereo not given in full) | 0.55 µM
CC1(C)Oc2ccc(C#N)cc2[C@@H]2NC(Cc3ccccc3)C(=O)O[C@H]21 (stereo not given in full) | 257 µM
CC1(C)Oc2ccc(C#N)cc2[C@H]2N[C@@H](Cc3ccccc3)C(=O)O[C@@H]21 | 2.69 µM
CC(C)[C@@H](CO)N[C@H]1c2cc(C#N)ccc2OC(C)(C)[C@@H]1O | 102 µM
CC(C)[C@@H](CO)N[C@@H]1c2cc(C#N)ccc2OC(C)(C)[C@H]1O | 53.7 µM
CC(C)[C@@H](CO)N(C)[C@@H]1c2cc(C#N)ccc2OC(C)(C)[C@H]1O | 5.5 µM
CC(C)C(CO)N(C)[C@H]1c2cc(C#N)ccc2OC(C)(C)[C@@H]1O (stereo not given in full) | 6.92 µM
CC(C)[C@@H](CCl)N(C)[C@@H]1c2cc(C#N)ccc2OC(C)(C)[C@H]1O | 35.5 µM
CC(C)[C@@H](CCl)N(C)[C@H]1c2cc(C#N)ccc2OC(C)(C)[C@@H]1O | 44.7 µM
CC(C)[C@H](N[C@H]1c2cc(C#N)ccc2OC(C)(C)[C@@H]1O)C(=O)O | 2.69 µM
CC(C)[C@H](N[C@@H]1c2cc(C#N)ccc2OC(C)(C)[C@H]1O)C(=O)O | 4.79 µM
C[C@H](N[C@@H]1c2cc(C#N)ccc2OC(C)(C)[C@H]1O)C(=O)OC(C)(C)C | 45.7 µM
CCN(CC)C[C@@H](O)COc1ccccc1C(=O)CCc1ccccc1 | 0.912 µM
O=C(CCc1ccccc1)c1ccccc1OC[C@H](O)CN1CCCCC1 | 0.603 µM
CC(C)N(C[C@@H](O)COc1ccccc1C(=O)CCc1ccccc1)C(C)C | 0.38 µM
CCC(=O)c1ccccc1OC[C@H](O)CN1CCCCC1 | 14.5 µM

Structure (SMILES) | EC50
CC(=O)c1ccccc1OC[C@H](O)CN1CCCCC1 | 31.6 µM
O=C(CCc1ccccc1)c1ccccc1OC[C@H](O)CN1CCN(c2ccccc2)CC1 | 0.617 µM
COc1ccccc1N1CCN(C[C@@H](O)COc2ccccc2C(=O)CCc2ccccc2)CC1 | 0.229 µM
COc1cccc(N2CCN(C[C@@H](O)COc3ccccc3C(=O)CCc3ccccc3)CC2)c1 | 0.676 µM
COc1ccc(N2CCN(C[C@@H](O)COc3ccccc3C(=O)CCc3ccccc3)CC2)cc1 | 0.257 µM
Cc1ccccc1N1CCN(C[C@@H](O)COc2ccccc2C(=O)CCc2ccccc2)CC1 | 0.0269 µM
O=C(CCc1ccccc1)c1ccccc1OC[C@H](O)CN1CCN(Cc2ccccc2)CC1 | 0.661 µM
O=C(CCc1ccccc1)c1ccccc1OC[C@H](O)CN1CCN(c2ccc(F)cc2)CC1 | 0.0708 µM
CCC(=O)c1ccccc1OC[C@H](O)CN1CCOCC1 | 209 µM
CN(C)C[C@@H](O)COc1ccccc1C(=O)CCc1ccccc1 | 2.45 µM
CC(=O)c1ccccc1OC[C@H](O)CN1CCOCC1 | 67.6 µM
CCCN(C)C[C@@H](O)COc1ccccc1C(=O)CCc1ccccc1 | 0.417 µM
CCN(CC)C[C@@H](O)COc1ccccc1C(=O)c1ccccc1 | 2.34 µM
O=C(/C=C/c1ccccc1)c1ccccc1OC[C@H](O)CN1CCCCC1 | 0.316 µM
O=C(CCc1ccccc1)c1ccccc1OC[C@H](O)CN1CCOCC1 | 3.63 µM
O=C(CCc1ccccc1)c1ccccc1OC[C@H](O)CN1CCC(O)(c2ccccc2)CC1 | 0.0575 µM
O=C(CCc1ccccc1)c1ccc(OC[C@H](O)CN2CCCCC2)cc1 | 0.977 µM
CO[C@H](CCc1ccccc1)c1ccccc1OC[C@H](O)CN1CCCCC1 | 0.174 µM
CCCNC[C@@H](O)c1oc2ccccc2c1CC | 11.5 µM
COc1ccccc1N1CCN(C[C@@H](O)c2oc3ccccc3c2CCc2ccccc2)CC1 | 0.178 µM
CCCNC[C@@H](O)COc1ccc(O)cc1C(=O)CCc1ccccc1 | 3.02 µM
O=C(CCc1ccccc1)c1ccc(OC[C@H](O)CN2CCN(c3ccc(F)cc3)CC2)cc1 | 2.51 µM
O=C(CCc1ccccc1)c1cccc(OC[C@H](O)CN2CCCCC2)c1 | 0.427 µM
O=C(CCc1ccccc1)c1ccc(OC[C@H](O)CN2CCOCC2)cc1 | 6.92 µM
O[C@@H](COc1ccccc1[C@H](O)CCc1ccccc1)CN1CCN(c2ccc(F)cc2)CC1 | 0.676 µM

Structure (SMILES) | EC50
CO[C@H](CCc1ccccc1)c1ccccc1OC[C@H](O)CN1CCN(c2ccc(F)cc2)CC1 | 0.224 µM
O=C(CCc1ccccc1)c1cccc(OC[C@H](O)CN2CCN(c3ccc(F)cc3)CC2)c1 | 1.12 µM
CC(C)N(C[C@@H](O)COc1ccc(C(=O)CCc2ccccc2)cc1)C(C)C | 0.912 µM
CC(C)N(C[C@@H](O)COc1ccccc1[C@H](O)CCc1ccccc1)C(C)C | 1.74 µM
CO[C@H](CCc1ccccc1)c1ccccc1OC[C@H](O)CN(C(C)C)C(C)C | 0.661 µM
O=C(CCc1cccc2ccccc12)c1ccccc1OC[C@H](O)CN1CCCCC1 | 0.174 µM
O=C(CCc1ccccc1)c1ccccc1OC[C@H](O)CNCC(c1ccccc1)c1ccccc1 | 0.794 µM
O=C(CCc1ccccc1)c1ccccc1OC[C@H](O)CNC(c1ccccc1)c1ccccc1 | 10.5 µM
O=C(CCc1cccc2ccccc12)c1ccccc1OC[C@H](O)CNCCC(c1ccccc1)c1ccccc1 | 0.724 µM
CO[C@H](CCc1ccccc1)c1ccccc1OC[C@H](O)CNCCC(c1ccccc1)c1ccccc1 | 0.759 µM
O[C@@H](COc1ccccc1[C@H](O)CCc1ccccc1)CN1CCOCC1 | 9.55 µM
CO[C@H](CCc1ccccc1)c1ccccc1OC[C@H](O)CN1CCOCC1 | 1.82 µM
CCCNC[C@@H](O)COc1ccc(OCc2ccccc2)cc1C(=O)CCc1ccccc1 | 0.11 µM
O=C(CCc1ccccc1)c1cc(OCc2ccccc2)ccc1OC[C@H](O)CN1CCCCC1 | 0.174 µM
O=C(CCc1ccccc1)c1cc(O)ccc1OC[C@H](O)CN1CCCCC1 | 1.74 µM
O=C(CCc1ccccc1)c1ccccc1OC[C@H](O)CNCCC(c1ccccc1)c1ccccc1 | 0.724 µM
O=C(CCc1ccccc1)c1ccccc1OC[C@H](O)CNc1ccccc1 | 6.46 µM
O=C(CCc1ccccc1)c1ccccc1OC[C@H](O)CNC1CCCCC1 | 0.339 µM
CC(C)N(C[C@@H](O)COc1ccc(O)cc1C(=O)CCc1ccccc1)C(C)C | 1.05 µM
CC(C)N(C[C@@H](O)COc1ccc(OCc2ccccc2)cc1C(=O)CCc1ccccc1)C(C)C | 0.0813 µM
O=C(CCc1ccccc1)c1cc(OCc2ccccc2)ccc1OC[C@H](O)CN1CCN(Cc2ccccc2)CC1 | 0.115 µM
O=C(CCc1ccccc1)c1cc(O)ccc1OC[C@H](O)CN1CCN(Cc2ccccc2)CC1 | 0.525 µM
CC(C)O[C@H](CCc1ccccc1)c1ccccc1OC[C@H](O)CN1CCCCC1 | 0.457 µM
CN[C@H]1c2cc(C#N)ccc2OC(C)(C)[C@@H]1O | 309 µM
CC1(C)Oc2ccc(C#N)cc2[C@H](NCc2ccccc2)[C@H]1O | 35.5 µM
